Experimental data published in patent US5620864A, “Acceptor for fucosyl transferase” (Health Research, Inc., priority 1992, dated 1997).

How the values were obtained:
[1] = molecular target: T1, serum α1,3-L-fucosyltransferase (Homo sapiens, UniProt P51993); assay: Assay of α1,3-fucosyltransferase with various synthetic acceptors, ovarian cancer sera as enzyme source; type: biochemical; settings: for [14C] Fucose Incorporated (CPM): acceptor 0.3 mM, 37° C. 18 h
T1 construct: Sera were collected from healthy females and ovarian cancer patients; from tissue; host or cells: blood serum of ovarian cancer patients and healthy females
T1 sequence (P51993 35-359 limits assumed): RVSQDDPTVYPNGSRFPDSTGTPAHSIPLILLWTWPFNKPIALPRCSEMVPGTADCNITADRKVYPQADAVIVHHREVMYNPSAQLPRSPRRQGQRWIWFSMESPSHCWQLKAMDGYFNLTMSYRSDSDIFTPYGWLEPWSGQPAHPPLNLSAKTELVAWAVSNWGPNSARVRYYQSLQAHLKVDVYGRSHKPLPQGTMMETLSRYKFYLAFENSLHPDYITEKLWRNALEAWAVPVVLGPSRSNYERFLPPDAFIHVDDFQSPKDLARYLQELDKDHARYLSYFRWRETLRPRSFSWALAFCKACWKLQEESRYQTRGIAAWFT
Description: Sera were collected from healthy females and ovarian cancer patients admitted to Roswell Park Cancer Institute in Buffalo, N.Y., USA. Ovarian tumor tissues were obtained during surgical procedures from patients with ovarian cancer. Both sera and tissues were stored frozen at -70° C. until use.
(§1) An incubation mixture contained 50 mM HEPES-NaOH, pH 7.5, 5 mM MnC12, 7 mM ATP, 3 mM NaN3, the acceptor 0.3 mM (for serum enzyme) or 3.0 mM (for tumor enzyme), 0.125 μCi of GDP-[U-^14 C] Fuc (Sp. Act. 216 mCi/mmol) and enzyme in a total volume of 0.10 ml; the control incubation mixture had everything except the acceptor. At the end of incubation at 37° C. for 18 h, the mixture was diluted with 1 ml water and passed through Dowex-1-C1 column (1 ml in a Pasteur pipet). The column was washed twice with 1 ml water; the breakthrough and wash, which contained the [^14 C] fucosylated neutral acceptor, were collected together in a scintillation vial and counted for radioactivity using the scintillation coctail 3a70 (Research Products International, Mount Prospects, Ill.) and Beckman LS9000. The Dowex column was then eluted successively with 3 ml each of 0.1M and 0.2M NaCl; these eluates which contained the [^14 C] fucosylated sulfated acceptors, were counted for radioactivity as before. Corrections were made by subtracting the radioactivity in the water and NaCl eluates of the control incubation mixture from the corresponding test fractions. The duplicate runs of samples gave almost identical values, the difference being <5%.
The activity of serum α1,3-fucosyltransferase was measured with the specific substrate 2'-methyl LacNAc and compared with the ability of several other synthetic substrates to act as an acceptor of fucose.
When the structure of the acceptor 2'-methyl LacNAc was modified by replacing the methyl group with sulfate group in C-2', 3', 6' or 6 position and tested their ability to act as the acceptor of fucose, the following novel findings emerged. […] The β-benzyl glycoside of 3' sulfo LacNAc was quite active (168.4%) but less than the parent compound.

[2] = system: α1,3-L-fucosyltransferase of the soluble fraction of human ovarian tumor; assay: Assay of α1,3-fucosyltransferase with synthetic acceptors, partially purified enzyme of ovarian tumor soluble fraction; type: biochemical; settings: for [14C] Fucose Incorporated (CPM): acceptor 3.0 mM, 37° C. 18 h
Description: as §1
As shown in the scheme set forth in FIG. 2, the α-L-fucosidase-free extract of the tissue (40 g), after concentration by 80% (NH4)2 SO4 precipitation was fractionated on bovine IgG glycopep-Sepharose in batches of 25 ml. After washing the column with the equilibration buffer, the bound enzyme was eluted with 1 M NaCl in the same buffer. The protein positive fractions were pooled and processed as shown in the scheme 2.0 ml of the above preparation was loaded on a Sephacryl S-200 column (Superfine:2.6 cm×88.0 cm) equilibrated at 4° C. with 50 mM Tris-HC1, pH 7.0 containing 0.15M NaCl and 0.1% Triton X-100 and eluted with the same buffer. Fractions of 3.0 ml were collected. The fucosyltransferase activity was located in the effluent fractions, by assaying first every 5th fraction and then obtaining the activity profile by assaying the alternate fractions in that range, using 2'-fucosyl LacNAc as the acceptor. […] Its elution position, which is slightly later than BSA, run separately on the same column, indicates its molecular weight as <67,000 daltons. […] The enzyme has been purified 66 fold over the soluble extract with a recovery of 6.2%. The enzyme at this stage lost its activity either kept frozen at -20° C. or left at 4° C. for more than a week. However, the enzyme at the end of the previous step was fairly stable for at least two months at 4° C. So this preparation of enzyme was used in acceptor ability comparison studies.
When α1,3-fucosyltransferase activity of the partially purified enzyme preparation from the soluble portion of ovarian tumor was measured and compared with the activity of other acceptors, the following results were obtained. 2'-methyl LacNAc, LacNAc and Galβ1, 3GlcNAc were respectively 100.0%, 60.6% and 565.5% active, indicating the presence of both α1,3 and α1,4 fucosyltransferase activities in this preparation.

[3] = system: α1,3-L-fucosyltransferase of the particulate fraction of ovarian tumor; assay: Assay of α1,3-fucosyltransferase with synthetic acceptors, ovarian tumor particulate fraction; type: biochemical, human; settings: for Relative Percent: 2'-methyl LacNAc = 100; for [14C] Fucose Incorporated (CPM): acceptor 3.0 mM, 37° C. 18 h
Description: FIG. 2 The scheme for the preparation of the particulate and soluble fractions of human ovarian tumor.
as §1
This finding is quite different from what we found with the soluble fraction, where α1,4-fucosyltransferase activity seems to be greater than α1,3-fucosyltransferase activity. […] The different nature of the above enzymes was made further clear, when sulfated derivatives of LacNAc was tested as acceptors.

Row | Relative Percent ([1]; 2'-methyl LacNAc = 100) [%] | Relative Percent ([1]; 2'-methyl LacNAc = 100, listed as 3-Sulfo Galβ1, 3GlcNAcβ-O-Bn) | [14C] Fucose Incorporated (CPM) [1] [CPM] | Relative Percent ([2]; 2'-methyl LacNAc = 100) [%] | Relative Percent ([2]; 2'-methyl LacNAc = 100, listed as 3-sulfo Galβ1,3GlcNAcβ-O-Bn) [%] | Relative Percent ([2]; 2'-methyl LacNAc = 100, listed as β-benzyl glycoside of 3-sulfoGalβ1, 3 GlcNAc) [%] | [14C] Fucose Incorporated (CPM) [2] [CPM] | Relative Percent [3] [%] | [14C] Fucose Incorporated (CPM) [3] [CPM] | Compound
1 | 0 | did not show any activity | 0 | 415.4 | 415.4 | 415 | 30704 | 2.9 | 1382 | CC(=O)N[C@H]1[C@H](OCc2ccccc2)O[C@H](CO)[C@@H](O)[C@@H]1O[C@@H]1O[C@H](CO)[C@H](O)[C@H](OS(=O)(=O)O)[C@H]1O [3-SulfoGa1β1,3G1cNAcβ-O--Bn, Benzyl 3-0-(sodium β-D-Galactopyranosy 3-Sulfate)-2-acetamido-2-deoxy-β-D-Glucopyranoside]
2 | 168.4 |  | 2913 | 183.8 |  |  | 13585 | 33.3 | 16062 | CC(=O)N[C@H]1[C@H](OCc2ccccc2)O[C@H](CO)[C@@H](O[C@@H]2O[C@H](CO)[C@H](O)[C@H](OS(=O)(=O)O)[C@H]2O)[C@@H]1O [3'-Sulfo LacNAcβ-O--Bn, Benzyl 4-0-(sodium β-D-Galactopyranosyl 3-Sulfate)-2-acetamido-2-deoxy-β-D-Glucopyranoside]
3 | 166.8 |  | 2886 | 87.0 |  |  | 6432 | 70.0 | 33759 | CC(=O)N[C@H]1[C@H](O[C@H]2[C@@H](O)[C@@H](CO)O[C@@H](Oc3ccc([N+](=O)[O-])cc3)[C@@H]2O)O[C@H](CO)[C@@H](O[C@@H]2O[C@H](CO)[C@H](O)[C@H](O)[C@H]2O)[C@@H]1O [LacNAcβ1,3Ga1β-O--PNP]
